# According to patent publication US6403606B1, “Thienopyridine derivatives and their use” (Takeda Chemical Industries Ltd., priority 1996, dated 2002):
# Marks after values point to notes of the source that are not given here.
# Tested on: Rat Adjuvant Arthritis
# Test: Activity on rat adjuvant arthritis (Test Example 1A)
# Type: in vivo, Male Lewis rats
# Settings: 6.25 mg/kg once daily for 14 days; day 14; relative to non-sensitized rats; N=6
# Procedure: Male Lewis rats (7 weeks old, Clea Japan) were sensitized by intracutaneous injection of 0.05 ml of Freund's complete adjuvant (0.5% dead tubercle bacillus cell suspension in liquid paraffin) at the right hind paw. The test drug (6.25 mg/kg), in a suspension in 0.5% methyl cellulose, was administered once daily for 14 days starting just before sensitization (day 0). At the days 0 and 14, the left hind paw volume and body weight of the animals were measured using a plethysmometer (manufactured by Ugo Basile Company, Italy) and an electronic balance (EB-3200D, manufactured by Shimadzu Corporation, Japan), respectively, and paw swelling suppression rate (%) and body weight gain rate (%), relative to non-sensitized rats, were determined.
# The results, expressed in mean±S.E. for each group (N=6), were compared and statistically analyzed by Dunnet method. Level of significance was set below 5%.
row,SMILES,Body weight gain rate (%)
1,"CCOC(=O)c1c(CN(CC)CC)nc2sc3c(c2c1-c1ccc(OC)c(OC)c1)CCN(C(C)=O)C3 [Example 15A, ethyl 7-acetyl-2-(N,N-diethylaminomethyl)-4-(3,4-dimethoxyphenyl)-5,6,7,8-tetrahydrothieno[2,3-b:5,4-c′]dipyridine-3-carboxylate]",9%
2,"CCOC(=O)c1c(CN(CC)CC)nc2sc3c(c2c1-c1ccc(OC)c(OC)c1)CCN(C(=O)c1ccccc1)C3 [Example 1A, ethyl 7-benzoyl-2-(N,N-diethylaminomethyl)-4-(3,4-dimethoxyphenyl)-5,6,7,8-tetrahydrothieno[2,3-b:5,4-c′]dipyridine-3-carboxylate]",15%
3,"CCOC(=O)c1c(CN(CC)CC)nc2sc3cnccc3c2c1-c1ccc(OC)c(OC)c1 [Example 7A, ethyl 2-(N,N-diethylaminomethyl)-4-(3,4-dimethoxyphenyl)thieno[2,3-b:5,4-c′]dipyridine-3-carboxylate]",26** %

# Same assay, conditions: 6.25 mg/kg once daily for 14 days; left hind paw volume day 14; relative to non-sensitized rats; N=6
row,SMILES,Edema inhibitory rate (%)
1,"CCOC(=O)c1c(CN(CC)CC)nc2sc3c(c2c1-c1ccc(OC)c(OC)c1)CCN(C(C)=O)C3 [Example 15A, ethyl 7-acetyl-2-(N,N-diethylaminomethyl)-4-(3,4-dimethoxyphenyl)-5,6,7,8-tetrahydrothieno[2,3-b:5,4-c′]dipyridine-3-carboxylate]",60** %
2,"CCOC(=O)c1c(CN(CC)CC)nc2sc3c(c2c1-c1ccc(OC)c(OC)c1)CCN(C(=O)c1ccccc1)C3 [Example 1A, ethyl 7-benzoyl-2-(N,N-diethylaminomethyl)-4-(3,4-dimethoxyphenyl)-5,6,7,8-tetrahydrothieno[2,3-b:5,4-c′]dipyridine-3-carboxylate]",49%
3,"CCOC(=O)c1c(CN(CC)CC)nc2sc3cnccc3c2c1-c1ccc(OC)c(OC)c1 [Example 7A, ethyl 2-(N,N-diethylaminomethyl)-4-(3,4-dimethoxyphenyl)thieno[2,3-b:5,4-c′]dipyridine-3-carboxylate]",84** %

# Tested on: not given
# Test: not given
# Settings: not given
row,SMILES,melting point [°C]
1,"COc1ccc(-c2c(Cl)c(CNC3CC3)nc3sc4c(c23)CCN(Cc2ccccc2)C4)cc1OC [Example 5B, 7-benzyl-3-chloro-2-(cyclopropylaminomethyl)-4-(3,4-dimethoxyphenyl)-5,6,7,8-tetrahydrothieno[2,3-b:5,4-c′]dipyridine]",131 to 132
2,"CCOC(=O)c1c(CN(CC)CC)nc2sc3cnccc3c2c1-c1ccc(O)c(OC)c1 [Example 51A, ethyl 2-diethylaminomethyl-4-(4-hydroxy-3-methoxyphenyl)thieno[2,3-b:5,4-c′]dipyridine-3-carboxylate]",179 to 181
3,"CCOC(=O)c1c(Cc2nc[nH]n2)nc2sc3cnccc3c2c1-c1ccc(OC)c(OC)c1 [Example 22A, ethyl 4-(3,4-dimethoxyphenyl)-2-(1,2,4-triazol-ylmethyl)thieno[2,3-b:5,4-c′]dipyridine-3-carboxylate]",172 to 174
4,"COc1ccc(-c2c(Cl)c(COC3=NN(c4ccccc4)CC3)nc3sc4c(c23)CCN(Cc2ccccc2)C4)cc1OC [Example 32B, 7-benzyl-3-chloro-4-(3,4-dimethoxyphenyl)-2-(1-phenyl-2-pyrazolin-3-yloxymethyl)-5,6,7,8-tetrahydrothieno[2,3-b:5,4-c′]dipyridine]",157 to 158
5,"CCN(CC)Cc1nc2sc3c(c2c(-c2ccc(OC)c(OC)c2)c1Cl)CCN(Cc1ccccc1)C3 [Example 2B, 7-benzyl-3-chloro-2-(N,N-diethylaminomethyl)-4-(3,4-dimethoxyphenyl)-5,6,7,8-tetrahydrothieno[2,3-b:5,4-c′]dipyridine]",150 to 151
6,"CCOC(=O)c1c(CN(CC)CC)nc2sc3c(c2c1-c1ccc(Cl)cc1)CCN(C(=O)c1ccccc1)C3 [Example 4A, ethyl 7-benzoyl-4-(4-chlorophenyl)-2-(N,N-diethylaminomethyl)-5,6,7,8-tetrahydrothieno[2,3-b:5,4-c′]dipyridine-3-carboxylate]",177 to 178
7,"CCOC(=O)c1c(Cn2cncn2)nc2sc3c(c2c1-c1ccc(OC)c(OC)c1)CCCN3C(=O)OCc1ccccc1 [Example 56A, ethyl 8-benzyloxycarbonyl-4-(3,4-dimethoxyphenyl)-5,6,7,8-tetrahydro-2-(1,2,4-triazol-1-ylmethyl)thieno[2,3-b:5,4-b′]dipyridine-3-carboxylate]",184 to 185
8,"CCOC(=O)c1c(Cn2cncn2)nc2sc3ccncc3c2c1-c1ccc(OC)c(OC)c1 [Example 66A, ethyl 4-(3,4-dimethoxyphenyl)-2-(1,2,4-triazol-1-ylmethyl)thieno[2,3-b:4,5-c′]dipyridine-3-carboxylate]",166 to 167
9,CCOC(=O)c1c(CN(CC)CC)nc2sc3c(c2c1-c1ccc(CC)cc1)CCN(OC(=O)CC)C3 [Example 39A],97 to 99
10,"CCOC(=O)c1c(CCn2cncn2)nc2sc3c(c2c1-c1ccc(OC)c(OC)c1)CCN(C(=O)c1ccc(Cl)cc1)C3 [Example 26A, ethyl 7-(4-chlorobenzoyl)-4-(3,4-dimethoxyphenyl)-5,6,7,8-tetrahydro-2-[2-(1,2,4-triazol-1-yl)ethyl]thieno[2,3-b:5,4-c′]dipyridine-3-carboxylate]",195 to 197
11,CCOC(=O)c1c(CN(CC)CC)nc2sc3c(c2c1-c1ccc(CC)cc1)CCN(S(=O)(=O)c1ccccc1)C3 [Example 42A],140 to 141
12,"CCOC(=O)c1c(Cn2cncn2)nc2sc3c(c2c1-c1ccc(OC)c(OC)c1)CN(C(=O)OCc1ccccc1)CC3 [Example 59A, ethyl 6-benzyloxycarbonyl-4-(3,4-dimethoxyphenyl)-5,6,7,8-tetrahydro-2-(1,2,4-triazol-1-ylmethyl)thieno[2,3-b:4,5-c′]dipyridine-3-carboxylate]",169 to 170
13,"CCOC(=O)c1c2c(cn1CN(CC)CC)C1=C(NC(C(=O)OCc3ccccc3)CC1)[SH]2c1ccc(OC)c(OC)c1 (centres unmarked) [Example 16A, ethyl 2-benzyloxycarbonyl-8-(3,4-dimethoxyphenyl)-6-diethylaminomethyl-2,3-dihydro-1H-pyrrolo[3′,4′:4,5]-thieno[2,3-b]pyridine-7-carboxylate]",142 to 143
14,"CCOC(=O)c1c(CN(CC)CC)nc2sc3c(c2c1-c1ccc(OC)c(OC)c1)CCCN3C(=O)OCc1ccccc1 [Example 58A, ethyl 8-benzyloxycarbonyl-2-diethylaminomethyl-4-(3,4-dimethoxyphenyl)-5,6,7,8-tetrahydrothieno[2,3-b:5,4-b′]dipyridine-3-carboxylate]",138 to 139
15,"COc1ccc(C2(Cl)CC(CNC(C)(C)C)=Nc3sc4c(c32)CCNC4)cc1OC (centres unmarked) [Example 10B, 2-(tert-butylaminomethyl)-4-chloro-4-(3,4-dimethoxyphenyl)-5,6,7,8-tetrahydrothieno(2,3-b:5,4-c′]dipyridine]",162 to 163
16,"CCOC(=O)c1c(CN2CCC(C(=O)OCC)CC2)nc2sc3c(c2c1-c1ccc(OC)c(OC)c1)CCN(C(=O)c1ccc(Cl)cc1)C3 [Example 3A, ethyl 7-(4-chlorobenzoyl)-4-(3,4-dimethoxyphenyl)-2-(4-ethoxycarbonylpiperidinomethyl)-5,6,7,8-tetrahydrothieno-[2,3-b:5,4-c′]dipyridine-3-carboxylate]",99 to 101
17,"COc1cc(-c2c(Cl)c(CNC(C)(C)C)nc3sc4c(c23)CCN(C(=O)c2ccccc2)C4)ccc1OC(C)C [Example 9B, 7-benzoyl-2-(tert-butylaminomethyl)-3-chloro-4-(4-isopropoxy-3-methoxyphenyl)-5,6,7,8-tetrahydrothieno[2,3-b:5,4-c′]dipyridine]",165 to 166
